Measured values from patent US9611277B2 (Janssen Pharmaceutica NV, priority 2013, dated 2017).

Assays:
rat orexin 1 receptor = rat orexin 1 receptor (Rattus norvegicus, UniProt P56718); test: Rat orexin 1 receptor radioligand binding; conditions: rat orexin 1 receptor; averages of 2-20 runs; read-out: rOX1 Ki
Procedure, shortened: (§1)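 Ki values derive from one-site competition IC50s corrected with the radioligand's predetermined Kd, triplicates per run, averaged over 2-20 runs. Cell homogenates (rat or human OX1R) compete against [^3H]-thiazolyl-oxadiazolyl-pyrrolidine methanone in PBS; 10 μM almorexant sets nonspecific binding; scintillation counting after washing.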

human orexin 1 receptor = human orexin 1 receptor (Homo sapiens, UniProt O43613); test: Human orexin 1 receptor radioligand binding; conditions: human orexin 1 receptor; averages of 2-20 runs; read-out: hOX1 Ki
Procedure, shortened: as §1

human orexin 2 receptor = human orexin 2 receptor (Homo sapiens (Human), UniProt O43614); test: Human orexin 2 receptor radioligand binding; conditions: human orexin 2 receptor; averages of 2-20 runs; read-out: hOX2 Ki
human orexin 2 receptor, sequence (O43614 whole entry): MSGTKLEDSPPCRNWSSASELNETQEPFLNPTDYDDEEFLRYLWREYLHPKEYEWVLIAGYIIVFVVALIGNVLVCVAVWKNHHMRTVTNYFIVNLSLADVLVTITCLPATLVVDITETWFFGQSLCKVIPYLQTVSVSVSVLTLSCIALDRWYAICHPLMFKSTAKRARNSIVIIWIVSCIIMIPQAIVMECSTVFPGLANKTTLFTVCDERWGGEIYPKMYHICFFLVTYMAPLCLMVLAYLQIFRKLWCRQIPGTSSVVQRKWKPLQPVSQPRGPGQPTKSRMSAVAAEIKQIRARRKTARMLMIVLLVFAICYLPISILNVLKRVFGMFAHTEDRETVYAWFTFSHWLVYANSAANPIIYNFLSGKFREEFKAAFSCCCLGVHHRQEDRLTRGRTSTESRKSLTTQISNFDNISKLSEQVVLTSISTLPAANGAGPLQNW
Procedure, shortened: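 Ki derived from one-site competition IC50 using predetermined Kd of [3H]-EMPA, triplicate points, 2-20 runs averaged. Binding done on homogenized HEK293 cells stably expressing human orexin 2 receptor, DMSO ≤0.1%, with 10 μM almorexant defining nonspecific binding; filtered, washed, scintillation counted.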

Row | Compound | Ki (rat orexin 1 receptor) | Ki (human orexin 1 receptor) | Ki (human orexin 2 receptor)
1 | Cc1ccc(-c2ncccn2)c(C(=O)N2C[C@H]3C[C@@H](Nc4cnc(C(F)(F)F)cn4)[C@@H]2C3)n1 [Example 191, (6-methyl-3-(pyrimidin-2-yl)pyridin-2-yl)((1S,4S,6R)-6-((5-(trifluoromethyl)pyrazin-2-yl)amino)-2-azabicyclo[2.2.1]heptan-2-yl)methanone] | 15 nM | 13 nM | 163 nM
2 | O=C(c1cccc(F)c1-n1nccn1)N1C[C@H]2C[C@@H](Nc3cnc(C(F)(F)F)cn3)[C@@H]1C2 [Example 192, (3-fluoro-2-(2H-1,2,3-triazol-2-yl)phenyl)((1S,4S,6R)-6-((5-(trifluoromethyl)pyrazin-2-yl)amino)-2-azabicyclo[2.2.1]heptan-2-yl)methanone] | 8 nM | 7 nM | 249 nM
3 | O=C(c1ccc(F)cc1-n1nccn1)N1C[C@H]2C[C@@H](Nc3cnc(C(F)(F)F)cn3)[C@@H]1C2 [Example 193, (4-fluoro-2-(2H-1,2,3-triazol-2-yl)phenyl)((1S,4S,6R)-6-((5-(trifluoromethyl)pyrazin-2-yl)amino)-2-azabicyclo[2.2.1]heptan-2-yl)methanone] | 40 nM | 65 nM | 2000 nM
4 | O=C(c1cc(F)ccc1-n1nccn1)N1CC2CC(Nc3cnc(C(F)(F)F)cn3)C1C2 [Example 194, ((5-fluoro-2-(2H-1,2,3-triazol-2-yl)phenyl)((1S,4S,6R)-6-((5-(trifluoromethyl)pyrazin-2-yl)amino)-2-azabicyclo[2.2.1]heptan-2-yl)methanone] | 8 nM | 8 nM | 241 nM
5 | O=C(c1c(F)cccc1-n1nccn1)N1C[C@H]2C[C@@H](Nc3cnc(C(F)(F)F)cn3)[C@@H]1C2 [Example 195, (2-fluoro-6-(2H-1,2,3-triazol-2-yl)phenyl)((1S,4S,6R)-6-((5-(trifluoromethyl)pyrazin-2-yl)amino)-2-azabicyclo[2.2.1]heptan-2-yl)methanone] | 9 nM | 8 nM | 199 nM
6 | Cc1cccc(C(=O)N2C[C@H]3C[C@@H](Nc4cnc(C(F)(F)F)cn4)[C@@H]2C3)c1-n1nccn1 [Example 196, (3-methyl-2-(2H-1,2,3-triazol-2-yl)phenyl)((1S,4S,6R)-6-((5-(trifluoromethyl)pyrazin-2-yl)amino)-2-azabicyclo[2.2.1]heptan-2-yl)methanone] | 6 nM | 4 nM | 60 nM
7 | COc1ccc(C(=O)N2C[C@H]3C[C@@H](Nc4cnc(C(F)(F)F)cn4)[C@@H]2C3)c(-n2nccn2)c1 [Example 197, (4-methoxy-2-(2H-1,2,3-triazol-2-yl)phenyl)((1S,4S,6R)-6-((5-(trifluoromethyl)pyrazin-2-yl)amino)-2-azabicyclo[2.2.1]heptan-2-yl)methanone] | 93 nM | 39 nM | 9700 nM
8 | O=C(c1ccc(F)cc1-c1ncccn1)N1C[C@H]2C[C@@H](Nc3cnc(C(F)(F)F)cn3)[C@@H]1C2 [Example 198, (4-fluoro-2-(pyrimidin-2-yl)phenyl)((1S,4S,6R)-6-((5-(trifluoromethyl)pyrazin-2-yl)amino)-2-azabicyclo[2.2.1]heptan-2-yl)methanone] | 11 nM | 9 nM | 1380 nM
9 | O=C(c1cc(F)ccc1-c1ncccn1)N1C[C@H]2C[C@@H](Nc3cnc(C(F)(F)F)cn3)[C@@H]1C2 [Example 199, (5-fluoro-2-(pyrimidin-2-yl)phenyl)((1S,4S,6R)-6-((5-(trifluoromethyl)pyrazin-2-yl)amino)-2-azabicyclo[2.2.1]heptan-2-yl)methanone] | 6 nM | 8 nM | 221 nM
10 | O=C(c1c(F)cccc1-c1ncccn1)N1C[C@H]2C[C@@H](Nc3cnc(C(F)(F)F)cn3)[C@@H]1C2 [Example 200, (2-fluoro-6-(pyrimidin-2-yl)phenyl)((1S,4S,6R)-6-((5-(trifluoromethyl)pyrazin-2-yl)amino)-2-azabicyclo[2.2.1]heptan-2-yl)methanone] | 7 nM | 6 nM | 240 nM
11 | O=C(c1ccccc1-c1ncccn1)N1C[C@H]2C[C@@H](Nc3cnc(C(F)(F)F)cn3)[C@@H]1C2 [Example 201, (2-(pyrimidin-2-yl)phenyl)((1S,4S,6R)-6-((5-(trifluoromethyl)pyrazin-2-yl)amino)-2-azabicyclo[2.2.1]heptan-2-yl)methanone] | 6 nM | 6 nM | 213 nM
12 | O=C(c1cc(F)ccc1-c1ncco1)N1C[C@H]2C[C@@H](Nc3cnc(C(F)(F)F)cn3)[C@@H]1C2 [Example 202, (5-fluoro-2-(oxazol-2-yl)phenyl)((1S,4S,6R)-6-((5-(trifluoromethyl)pyrazin-2-yl)amino)-2-azabicyclo[2.2.1]heptan-2-yl)methanone] | 13 nM | 13 nM | 302 nM
13 | O=C(c1ccccc1-c1ncc(F)cn1)N1C[C@H]2C[C@@H](Nc3cnc(C(F)(F)F)cn3)[C@@H]1C2 [Example 203, (2-(5-fluoropyrimidin-2-yl)phenyl)((1S,4S,6R)-6-((5-(trifluoromethyl)pyrazin-2-yl)amino)-2-azabicyclo[2.2.1]heptan-2-yl)methanone] | 9 nM | 9 nM | 545 nM
14 | O=C(c1cccc(F)c1-c1ncc(F)cn1)N1C[C@H]2C[C@@H](Nc3cnc(C(F)(F)F)cn3)[C@@H]1C2 [Example 204, (3-fluoro-2-(5-fluoropyrimidin-2-yl)phenyl)((1S,4S,6R)-6-((5-(trifluoromethyl)pyrazin-2-yl)amino)-2-azabicyclo[2.2.1]heptan-2-yl)methanone] | 9 nM | 9 nM | 960 nM
15 | O=C(c1nccnc1-c1ccccc1)N1C[C@H]2C[C@@H](Nc3cnc(C(F)(F)F)cn3)[C@@H]1C2 [Example 205, (3-phenylpyrazin-2-yl)((1S,4S,6R)-6-((5-(trifluoromethyl)pyrazin-2-yl)amino)-2-azabicyclo[2.2.1]heptan-2-yl)methanone] | 51 nM | 35 nM | 846 nM
16 | O=C(c1ccccc1-c1ccccc1)N1C[C@H]2C[C@@H](Nc3cnc(C(F)(F)F)cn3)[C@@H]1C2 [Example 206, [1,1′-biphenyl]-2-yl((1S,4S,6R)-6-((5-(trifluoromethyl)pyrazin-2-yl)amino)-2-azabicyclo[2.2.1]heptan-2-yl)methanone] | 8 nM | 10 nM | 103 nM
17 | O=C(c1occc1-c1ccccc1)N1C[C@H]2C[C@@H](Nc3cnc(C(F)(F)F)cn3)[C@@H]1C2 [Example 207, (3-phenylfuran-2-yl)((1S,4S,6R)-6-((5-(trifluoromethyl)pyrazin-2-yl)amino)-2-azabicyclo[2.2.1]heptan-2-yl)methanone] | 143 nM | 127 nM | 611 nM
18 | CN(c1cnc(C(F)(F)F)cn1)[C@@H]1C[C@H]2C[C@@H]1N(C(=O)c1cccc(F)c1-c1ncccn1)C2 [Example 208, (3-fluoro-2-(pyrimidin-2-yl)phenyl)((1S,4S,6R)-6-(methyl(5-(trifluoromethyl)pyrazin-2-yl)amino)-2-azabicyclo[2.2.1]heptan-2-yl)methanone] | 7 nM | 6 nM | 846 nM
19 | CN(c1cnc(C(F)(F)F)cn1)[C@@H]1C[C@H]2C[C@@H]1N(C(=O)c1cc(F)ccc1-c1ncccn1)C2 [Example 209, (5-fluoro-2-(pyrimidin-2-yl)phenyl)((1S,4S,6R)-6-(methyl(5-(trifluoromethyl)pyrazin-2-yl)amino)-2-azabicyclo[2.2.1]heptan-2-yl)methanone] | 9 nM | 5 nM | 753 nM
20 | CN(c1cnc(C(F)(F)F)cn1)[C@@H]1C[C@H]2C[C@@H]1N(C(=O)c1ccccc1-c1ncccn1)C2 [Example 210, ((1S,4S,6R)-6-(methyl(5-(trifluoromethyl)pyrazin-2-yl)amino)-2-azabicyclo[2.2.1]heptan-2-yl)(2-(pyrimidin-2-yl)phenyl)methanone] | 6 nM | 5 nM | 502 nM
21 | O=C(c1cccc(F)c1-c1ncccn1)N1C[C@H]2C[C@@H](N(CC3CC3)c3cnc(C(F)(F)F)cn3)[C@@H]1C2 [Example 211, ((1S,4S,6R)-6-((cyclopropylmethyl)(5-(trifluoromethyl)pyrazin-2-yl)amino)-2-azabicyclo[2.2.1]heptan-2-yl)(3-fluoro-2-(pyrimidin-2-yl)phenyl)methanone] | 31 nM | 16 nM | 1300 nM
22 | O=C(c1cccc(F)c1-n1nccn1)N1C[C@H]2C[C@@H](Nc3cnc(Cl)cn3)[C@@H]1C2 [Example 212, ((1S,4S,6R)-6-((5-chloropyrazin-2-yl)amino)-2-azabicyclo[2.2.1]heptan-2-yl)(3-fluoro-2-(2H-1,2,3-triazol-2-yl)phenyl)methanone] | 14 nM | 9 nM | 607 nM
23 | O=C(c1cc(F)ccc1-n1nccn1)N1CC2CC(Nc3cnc(Cl)cn3)C1C2 [Example 213, 1S,4S,6R)-6-((5-chloropyrazin-2-yl)amino)-2-azabicyclo[2.2.1]heptan-2-yl)(5-fluoro-2-(2H-1,2,3-triazol-2-yl)phenyl)methanone] | 39 nM | 31 nM | 871 nM
24 | O=C(c1cccc(F)c1-c1ncccn1)N1C[C@H]2C[C@@H](Nc3cnc(Cl)cn3)[C@@H]1C2 [Example 214, ((1S,4S,6R)-6-((5-chloropyrazin-2-yl)amino)-2-azabicyclo[2.2.1]heptan-2-yl)(3-fluoro-2-(pyrimidin-2-yl)phenyl)methanone] | 13 nM | 14 nM | 708 nM
